Test [1] has as its system cow's milk-specific T-cell line TCL A. In words: T-cell proliferation assay. The test is classed as cell-based, human. The note with it: synthetic peptide, SI≥2 considered positive, FIG. 2. As to the method: (§1) Synthetic peptides were obtained from JPT technologies. Only peptides containing at least 9 AAs were taken into account, as this is the minimal size for binding to MHC class II molecules and subsequent T-cell recognition (Holland et al, Front Immunol 2013 Jul. 1; 4:172.) Synthetic peptides (JPT technologies) identical to the peptides identified in all batches of the HP of example 1 were dissolved in dimethylsulfoxide (Sigma Aldrich) at a concentration of 5.3 mM. The peptides were tested on cow's milk-specific T-cell lines (TCLs) from three different donors. The peptides were tested on cow's milk protein-specific T-cell lines (TCLs) from three infant donors, diagnosed with cow's milk protein allergy. […] Proliferation was determined as described previously (Ruiter et al, Clin Exp Allergy 2006, 36(3):303-310). Stimulation indexes (Sls, ratio between proliferation of allergen/peptide-stimulated and non-stimulated T cells) were calculated and a SI≥2 was considered positive.
(§2) To confirm that the peptides identified in HP were recognized by T cells, synthetic peptides identical to these identified peptides were tested on cow's milk-specific human TCLs. As there was a considered overlap between the identified peptides, five peptides were tested (Table 7) that were identified in all batches and differed with more than 9A from each other. All tested peptides were able to induce proliferation (FIG. 2). […] This was also seen with the in silico prediction data (data not shown). […] As peptide LIV . . . […] SLL (AA #1-32) did, the region containing AA #28-32 (DISLL) was essential for the response of TCL A. Unexpectedly, TCL C recognized peptide LIV . . . AAS (AA #1-27), while the longer peptide containing the same sequence with 5 additional AAs, LIV . . .

Test [2] has as its system cow's milk-specific T-cell line TCL C. The test is described as follows: T-cell proliferation assay. The conditions noted are these: synthetic peptide, SI≥2 considered positive, FIG. 2. Type of test: cell-based, human. How it is done:
as §1, §2

Regarding “LIVTQTMKGLDIQKVAGTWYSLAMAAS (beta-lactoglobulin peptide fragment) [SEQ ID NO: 9]”, the “T cell proliferation (stimulation index)” value is “not able to induce proliferation” in test [1] and “recognized” in test [2].
As for “LIVTQTMKGLDIQKVAGTWYSLAMAASDISLL (beta-lactoglobulin peptide fragment) [SEQ ID NO: 11]”, in test [2], the “T cell proliferation (stimulation index)” value was “not able to induce a proliferative response”.

The values are drawn from patent US20210227869A1, “Formula with a specific beta-lactoglobulin peptide” (N.V. Nutricia, priority 2018, published 2021).
